Holding throughout (assay): Z'-LYTE kinase panel
Type in all cases: biochemical

One experiment has as its target T1, MAPK13 (p38 delta) (Homo sapiens, UniProt O15264).
T1 construct: purchased ThermoFisher (SelectScreen, Z'-LYTE)
T1 sequence (O15264 1-365): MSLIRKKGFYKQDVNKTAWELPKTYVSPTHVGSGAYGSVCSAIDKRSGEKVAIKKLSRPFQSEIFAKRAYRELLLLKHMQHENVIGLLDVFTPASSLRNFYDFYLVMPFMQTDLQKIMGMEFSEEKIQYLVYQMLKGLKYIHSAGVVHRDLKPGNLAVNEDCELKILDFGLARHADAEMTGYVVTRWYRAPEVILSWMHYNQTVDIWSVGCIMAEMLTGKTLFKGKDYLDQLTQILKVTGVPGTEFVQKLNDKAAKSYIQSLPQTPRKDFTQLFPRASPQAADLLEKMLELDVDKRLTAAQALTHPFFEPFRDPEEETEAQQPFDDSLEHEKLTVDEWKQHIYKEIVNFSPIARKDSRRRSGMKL
In short, it runs like this: (§1)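 Activity is reported as percent inhibition at one concentration, 10 µM, determined by the standard Z′-LYTE kinase assay across 225 panel kinases.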

The next experiment addresses T2, DYRK1B (Homo sapiens, UniProt Q9Y463).
T2 construct: purchased ThermoFisher (SelectScreen, Z'-LYTE)
In short, it runs like this:
as §1

In another experiment the target is T3, STK22D (TSSK1) (Homo sapiens, UniProt Q9BXA7).
T3 construct: purchased ThermoFisher (SelectScreen, Z'-LYTE)
T3 sequence (Q9BXA7 1-367): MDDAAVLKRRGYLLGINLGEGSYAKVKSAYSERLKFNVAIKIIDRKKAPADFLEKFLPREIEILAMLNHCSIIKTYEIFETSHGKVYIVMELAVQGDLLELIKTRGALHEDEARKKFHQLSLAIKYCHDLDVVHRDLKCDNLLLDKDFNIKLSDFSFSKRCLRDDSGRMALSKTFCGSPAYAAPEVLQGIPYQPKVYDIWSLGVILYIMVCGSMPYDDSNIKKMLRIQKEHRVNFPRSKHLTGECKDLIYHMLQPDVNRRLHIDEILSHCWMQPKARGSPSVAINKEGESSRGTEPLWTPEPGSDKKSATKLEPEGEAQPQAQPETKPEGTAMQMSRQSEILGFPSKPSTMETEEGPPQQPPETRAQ
In short, it runs like this: as §1

For the next experiment, the target named is T4, EPHA1 (Homo sapiens, UniProt P21709).
T4 construct: purchased ThermoFisher (SelectScreen, Z'-LYTE)
T4 sequence (P21709 26-976): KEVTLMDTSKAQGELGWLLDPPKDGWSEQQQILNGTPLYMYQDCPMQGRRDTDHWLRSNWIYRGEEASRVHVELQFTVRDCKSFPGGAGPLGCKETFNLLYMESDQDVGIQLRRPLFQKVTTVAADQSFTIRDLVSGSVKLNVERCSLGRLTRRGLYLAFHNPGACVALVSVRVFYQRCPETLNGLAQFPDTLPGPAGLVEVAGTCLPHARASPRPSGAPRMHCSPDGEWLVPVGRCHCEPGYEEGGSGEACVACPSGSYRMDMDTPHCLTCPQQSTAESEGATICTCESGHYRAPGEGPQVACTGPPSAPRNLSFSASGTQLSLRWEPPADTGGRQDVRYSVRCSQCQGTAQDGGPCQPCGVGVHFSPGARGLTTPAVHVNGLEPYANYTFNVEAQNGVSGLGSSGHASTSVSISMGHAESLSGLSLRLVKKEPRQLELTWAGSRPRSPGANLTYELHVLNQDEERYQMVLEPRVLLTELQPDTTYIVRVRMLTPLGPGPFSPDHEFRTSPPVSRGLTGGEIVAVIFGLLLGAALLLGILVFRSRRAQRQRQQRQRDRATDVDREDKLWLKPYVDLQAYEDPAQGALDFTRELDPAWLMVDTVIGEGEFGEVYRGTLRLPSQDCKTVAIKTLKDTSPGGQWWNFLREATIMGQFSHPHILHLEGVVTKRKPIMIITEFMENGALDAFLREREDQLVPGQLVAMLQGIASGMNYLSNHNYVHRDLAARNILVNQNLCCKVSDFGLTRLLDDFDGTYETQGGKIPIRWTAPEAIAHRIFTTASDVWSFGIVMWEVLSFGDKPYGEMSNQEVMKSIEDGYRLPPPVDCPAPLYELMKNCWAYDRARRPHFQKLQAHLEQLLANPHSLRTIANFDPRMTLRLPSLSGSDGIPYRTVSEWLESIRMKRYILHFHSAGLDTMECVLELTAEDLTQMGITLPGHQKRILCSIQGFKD
In short, it runs like this:
as §1

For another experiment, the target named is T5, NEK6 (Homo sapiens, UniProt Q9HC98).
T5 construct: purchased ThermoFisher (SelectScreen, Z'-LYTE)
T5 sequence (Q9HC98 whole entry): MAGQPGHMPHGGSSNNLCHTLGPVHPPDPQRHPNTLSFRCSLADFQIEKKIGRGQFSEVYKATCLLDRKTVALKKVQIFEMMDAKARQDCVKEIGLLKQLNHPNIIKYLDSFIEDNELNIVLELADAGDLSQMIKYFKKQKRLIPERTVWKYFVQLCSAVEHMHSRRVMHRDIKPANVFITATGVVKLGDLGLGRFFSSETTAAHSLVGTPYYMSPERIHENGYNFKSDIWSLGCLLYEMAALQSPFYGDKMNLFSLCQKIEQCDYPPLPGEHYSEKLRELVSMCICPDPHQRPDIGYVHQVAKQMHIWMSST
An outline of the steps:
as §1

For a further experiment, the target named is T6, MKNK1 (MNK1) (Homo sapiens, UniProt Q9BUB5).
T6 construct: purchased ThermoFisher (SelectScreen, Z'-LYTE)
T6 sequence (Q9BUB5 whole entry): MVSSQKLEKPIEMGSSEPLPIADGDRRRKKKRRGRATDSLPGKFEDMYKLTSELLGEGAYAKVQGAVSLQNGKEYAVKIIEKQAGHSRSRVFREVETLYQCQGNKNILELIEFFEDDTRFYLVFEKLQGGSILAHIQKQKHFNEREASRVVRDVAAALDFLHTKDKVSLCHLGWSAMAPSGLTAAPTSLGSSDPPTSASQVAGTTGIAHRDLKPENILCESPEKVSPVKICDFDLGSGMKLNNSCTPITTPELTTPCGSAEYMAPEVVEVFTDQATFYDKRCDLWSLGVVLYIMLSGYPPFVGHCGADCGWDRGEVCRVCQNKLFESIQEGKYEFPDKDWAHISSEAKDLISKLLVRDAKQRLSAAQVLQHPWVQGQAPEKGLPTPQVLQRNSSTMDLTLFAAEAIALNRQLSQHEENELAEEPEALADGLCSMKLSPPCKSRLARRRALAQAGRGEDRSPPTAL
An outline of the steps:
as §1

For another experiment, the target named is T7, TYRO3 (RSE) (Homo sapiens, UniProt Q06418).
T7 construct: purchased ThermoFisher (SelectScreen, Z'-LYTE)
T7 sequence (Q06418 41-890): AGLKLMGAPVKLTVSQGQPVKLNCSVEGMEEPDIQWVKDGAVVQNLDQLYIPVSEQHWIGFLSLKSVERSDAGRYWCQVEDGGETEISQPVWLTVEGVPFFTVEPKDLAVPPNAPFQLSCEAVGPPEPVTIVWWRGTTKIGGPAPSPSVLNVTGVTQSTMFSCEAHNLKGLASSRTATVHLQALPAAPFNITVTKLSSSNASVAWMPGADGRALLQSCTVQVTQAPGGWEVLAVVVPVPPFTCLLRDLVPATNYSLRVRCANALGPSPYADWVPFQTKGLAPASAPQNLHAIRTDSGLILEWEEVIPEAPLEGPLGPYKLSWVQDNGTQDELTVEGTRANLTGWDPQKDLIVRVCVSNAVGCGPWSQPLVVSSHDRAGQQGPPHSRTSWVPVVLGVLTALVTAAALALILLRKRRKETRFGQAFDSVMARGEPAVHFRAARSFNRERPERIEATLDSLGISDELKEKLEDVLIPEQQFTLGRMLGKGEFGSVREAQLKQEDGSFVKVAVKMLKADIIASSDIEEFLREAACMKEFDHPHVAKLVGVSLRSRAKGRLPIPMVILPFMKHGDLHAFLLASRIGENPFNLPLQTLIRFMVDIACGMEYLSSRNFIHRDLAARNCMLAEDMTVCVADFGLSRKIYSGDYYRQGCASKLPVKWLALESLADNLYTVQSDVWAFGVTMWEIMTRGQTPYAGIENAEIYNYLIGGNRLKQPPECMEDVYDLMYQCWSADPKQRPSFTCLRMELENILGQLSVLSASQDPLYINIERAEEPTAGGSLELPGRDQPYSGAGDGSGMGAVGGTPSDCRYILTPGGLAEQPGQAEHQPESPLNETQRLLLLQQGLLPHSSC
In short, it runs like this: as §1

For another experiment, the target named is T8, PRKCA (PKC alpha) (Homo sapiens, UniProt P17252).
T8 construct: purchased ThermoFisher (SelectScreen, Z'-LYTE)
An outline of the steps: as §1

T2 sequence (Q9Y463 whole entry): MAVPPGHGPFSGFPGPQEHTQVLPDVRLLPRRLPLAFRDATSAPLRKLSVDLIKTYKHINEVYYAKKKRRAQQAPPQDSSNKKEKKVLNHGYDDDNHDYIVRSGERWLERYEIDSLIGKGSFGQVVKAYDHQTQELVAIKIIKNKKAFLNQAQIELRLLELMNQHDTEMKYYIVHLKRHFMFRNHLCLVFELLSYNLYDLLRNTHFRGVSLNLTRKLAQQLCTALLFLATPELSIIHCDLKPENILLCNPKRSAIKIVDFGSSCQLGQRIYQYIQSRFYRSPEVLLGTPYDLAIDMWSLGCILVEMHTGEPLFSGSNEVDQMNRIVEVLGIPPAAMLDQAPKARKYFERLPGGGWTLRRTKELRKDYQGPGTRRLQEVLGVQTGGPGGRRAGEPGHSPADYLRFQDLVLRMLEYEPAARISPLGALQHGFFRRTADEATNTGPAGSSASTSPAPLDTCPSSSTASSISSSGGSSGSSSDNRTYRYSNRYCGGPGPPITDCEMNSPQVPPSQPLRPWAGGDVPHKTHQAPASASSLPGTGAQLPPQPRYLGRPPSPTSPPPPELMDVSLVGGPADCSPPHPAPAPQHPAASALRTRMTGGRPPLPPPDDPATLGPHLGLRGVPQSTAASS

Turning to `Cc1ncc(-c2nc(Nc3ccc(C(=O)NCCN4CCCCC4)cc3)ncc2F)n1C(C)C` [Compound 3], the inhibition at 10 µM against MAPK13 (p38 delta) came to 65%; against DYRK1B it was 100%; on STK22D (TSSK1), 81%; at EPHA1, 98%; against NEK6 it was 12%; on MKNK1 (MNK1), 68%. For the same compound, the inhibition at 10 µM against TYRO3 (RSE) turned out to be 92%; at PRKCA (PKC alpha), 102%.
As to `Cc1cc(Nc2nc(N)nn2C(=O)NC(C)C)ccc1Cl` [Compound 5], the inhibition at 10 µM was -0.07% on MAPK13 (p38 delta); -4% against DYRK1B; 21% against STK22D (TSSK1); 11% on EPHA1; 3% on NEK6; 7% against MKNK1 (MNK1). Further, the inhibition at 10 µM was determined as 14% against TYRO3 (RSE) and 7% on PRKCA (PKC alpha).
As for “XMD8-92 [Compound 2, reference compound]”, the “MAPK13 (p38 delta) % Inhibition” value at MAPK13 (p38 delta) (10 µM compound, ATP Km app) worked out at 1.54%. Moreover, the “DYRK1B % Inhibition” value at DYRK1B (10 µM compound, ATP Km app) was 12%. At STK22D (TSSK1) (10 µM compound, ATP Km app), the “STK22D (TSSK1) % Inhibition” value was found to be 11%. Moreover, the “EPHA1 % Inhibition” value on EPHA1 (10 µM compound, ATP Km app) is 9.48%. Besides, at NEK6 (10 µM compound, ATP Km app), the “NEK6 % Inhibition” value turned out to be 68%. Moreover, the “MKNK1 (MNK1) % Inhibition” value on MKNK1 (MNK1) (10 µM compound, ATP Km app) stood at 3.65%. Further, the “TYRO3 (RSE) % Inhibition” value at TYRO3 (RSE) (10 µM compound, ATP Km app) worked out at 9%. Also, the “PRKCA (PKC alpha) % Inhibition” value at PRKCA (PKC alpha) (10 µM compound, ATP Km app) was 47%.

(Values after article PMC4854315, “Discovery of a novel allosteric inhibitor-binding site in ERK5: comparison with the canonical kinase hinge ATP-binding site” (Acta Crystallographica. Section D, Structural Biology, 2016).)
